Several values for one entry are separate records, joined by “and”; a condition that tells them apart may be missing. Equal entries are not always repeated. Inconclusive results and toxic doses are left out.
System: BDF1 mice, P388 leukemia ip, median survival T/C
Test: NCI In Vivo Anticancer Drug Screen. Data for tumor model P388 Leukemia (intraperitoneal) in B6D2F1 (BDF1) mice
Conditions: endpoint: median survival time, higher = longer survival
Procedure, shortened: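 Antitumour effect was judged in vivo: survival in drug-treated mice, normalised to that of vehicle-dosed controls, gives the reported T/C.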

[1] = dose: 100.0 mg/kg/injection, schedule: Q04DX003 (ip), vehicle: saline with Tween-80
[2] = dose: 200.0 mg/kg/injection, schedule: Q04DX003 (ip), vehicle: saline with Tween-80
[3] = dose: 400.0 mg/kg/injection, schedule: Q04DX003 (ip), vehicle: saline with Tween-80
[4] = dose: 50.0 mg/kg/injection, schedule: Q01DX009 (ip), vehicle: saline with Tween-80
[5] = dose: 100.0 mg/kg/injection, schedule: Q01DX009 (ip), vehicle: saline with Tween-80
[6] = dose: 200.0 mg/kg/injection, schedule: Q01DX009 (ip), vehicle: saline with Tween-80

## COc1ccc(/C(C#N)=C2C=C(Cl)/C(=N/O)C=C/2Cl)cc1
dose: 100.0 mg/kg/injection, schedule: Q01DX001 (ip), vehicle: Klucel (hydroxypropylcellulose) (HPC)
  T/C: 90 % of control
dose: 100.0 mg/kg/injection, schedule: Q01DX009 (ip), vehicle: Klucel (hydroxypropylcellulose) (HPC)
  T/C: 95 % of control
dose: 200.0 mg/kg/injection, schedule: Q01DX001 (ip), vehicle: Klucel (hydroxypropylcellulose) (HPC)
  T/C: 90 % of control
dose: 200.0 mg/kg/injection, schedule: Q01DX009 (ip), vehicle: Klucel (hydroxypropylcellulose) (HPC)
  T/C: 87 % of control
dose: 400.0 mg/kg/injection, schedule: Q01DX001 (ip), vehicle: Klucel (hydroxypropylcellulose) (HPC)
  T/C: 86 % of control
dose: 400.0 mg/kg/injection, schedule: Q01DX009 (ip), vehicle: Klucel (hydroxypropylcellulose) (HPC)
  T/C: 104 % of control

## O=[n+]1c2ccccc2n([O-])c2ccccc21.[Cl][Cu][Cl]
dose: 6.25 mg/kg/injection, schedule: Q04DX003 (ip), vehicle: saline with Tween-80
  T/C: 101 % of control
dose: 12.5 mg/kg/injection, schedule: Q04DX003 (ip), vehicle: saline with Tween-80
  T/C: 116 % of control

## Cc1c(C)c(Br)c(C)c(-c2c(O)c(Br)c(-c3c(C)c(C)c(C)c(Br)c3C)c(O)c2Br)c1C
[1]
  T/C: 100 % of control
[2]
  T/C: 90 % of control
[3]
  T/C: 90 % of control

## NC(=S)N/N=C\c1nccc2c(C(F)(F)F)cccc12
dose: 25.0 mg/kg/injection, schedule: Q04DX003 (ip), vehicle: saline with Tween-80
  T/C: 106 % of control

## [Fe+5].[O-][Cl+3]([O-])([O-])O.[O-]c1ccccc1C=NCCN1CC1.[O-]c1ccccc1C=NCCN1CC1
[1]
  T/C: 100 % of control and 120 % of control
[2]
  T/C: 116 % of control

## CC(=O)OC1CCC2(C)C3CCC4(C)C(=CCC5(C(=O)O)CCC(C)(C)CC45)C3(C)CCC2C1(C)C (stereo not given)
dose: 0.12 mg/kg/injection, schedule: Q01DX009 (ip), vehicle: alcohol
  T/C: 111 % of control
dose: 0.25 mg/kg/injection, schedule: Q01DX009 (ip), vehicle: alcohol
  T/C: 106 % of control
dose: 0.5 mg/kg/injection, schedule: Q01DX009 (ip), vehicle: alcohol
  T/C: 116 % of control

## O=CNNS(=O)(=O)/C=C/c1ccccc1
dose: 12.5 mg/kg/injection, schedule: Q01DX009 (ip), vehicle: distilled water + Tween-80
  T/C: 106 % of control
dose: 25.0 mg/kg/injection, schedule: Q01DX009 (ip), vehicle: distilled water + Tween-80
  T/C: 105 % of control
dose: 50.0 mg/kg/injection, schedule: Q01DX009 (ip), vehicle: distilled water + Tween-80
  T/C: 102 % of control
dose: 100.0 mg/kg/injection, schedule: Q01DX009 (ip), vehicle: distilled water + Tween-80
  T/C: 89 % of control
dose: 200.0 mg/kg/injection, schedule: Q01DX009 (ip), vehicle: distilled water + Tween-80
  T/C: 89 % of control

## c1ccc([B-]2([C+]3CCCCC3)N3CCCCC3C3CCCCN32)cc1 (stereo not given)
dose: 12.5 mg/kg/injection, schedule: Q01DX009 (ip), vehicle: Klucel (hydroxypropylcellulose) (HPC)
  T/C: 119 % of control
dose: 25.0 mg/kg/injection, schedule: Q01DX009 (ip), vehicle: Klucel (hydroxypropylcellulose) (HPC)
  T/C: 119 % of control

## COc1ccc2c(C(=O)CCC(=O)O)cccc2c1
dose: 100.0 mg/kg/injection, schedule: Q01DX001 (ip), vehicle: saline
  T/C: 100 % of control
dose: 200.0 mg/kg/injection, schedule: Q01DX001 (ip), vehicle: saline
  T/C: 100 % of control
dose: 400.0 mg/kg/injection, schedule: Q01DX001 (ip), vehicle: saline
  T/C: 100 % of control

## CCOc1ccn(CC(=O)c2ccc([N+](=O)[O-])o2)c(=O)n1
[4]
  T/C: 100 % of control
[5]
  T/C: 101 % of control

## COC1=C2CCCCC2=[N+]2CCc3ccccc3C2C1 (stereo not given)
dose: 25.0 mg/kg/injection, schedule: Q01DX001 (ip), vehicle: saline sonified
  T/C: 100 % of control
dose: 50.0 mg/kg/injection, schedule: Q01DX001 (ip), vehicle: saline sonified
  T/C: 95 % of control
dose: 100.0 mg/kg/injection, schedule: Q01DX001 (ip), vehicle: saline sonified
  T/C: 95 % of control

## CCOC(=O)CCC(NC(=O)N(CCCl)CCCl)C(=O)OCC (stereo not given)
dose: 132.0 mg/kg/injection, schedule: Q04DX003 (ip), vehicle: saline with Tween-80
  T/C: 175 % of control
[2]
  T/C: 204 % of control
dose: 300.0 mg/kg/injection, schedule: Q04DX003 (ip), vehicle: saline with Tween-80
  T/C: 183 % of control

## O=C(Cn1ccc(=O)[nH]c1=O)Nc1nccs1
dose: 3.12 mg/kg/injection, schedule: Q04DX003 (ip), vehicle: saline
  T/C: 93 % of control
dose: 6.25 mg/kg/injection, schedule: Q04DX003 (ip), vehicle: saline
  T/C: 107 % of control and 121 % of control
dose: 12.5 mg/kg/injection, schedule: Q04DX003 (ip), vehicle: saline
  T/C: 110 % of control and 121 % of control
dose: 25.0 mg/kg/injection, schedule: Q04DX003 (ip), vehicle: saline
  T/C: 109 % of control and 121 % of control

## Oc1ccccc1C=NC1CCCCC1.Oc1ccccc1C=NC1CCCCC1.[Ni+2]
dose: 50.0 mg/kg/injection, schedule: Q04DX003 (ip), vehicle: saline sonified
  T/C: 109 % of control
dose: 100.0 mg/kg/injection, schedule: Q04DX003 (ip), vehicle: saline sonified
  T/C: 109 % of control
dose: 200.0 mg/kg/injection, schedule: Q04DX003 (ip), vehicle: saline sonified
  T/C: 100 % of control

## COc1ccc(C2CCc3cc4c(cc3/C2=N/O)OCO4)cc1OC (stereo not given)
[5]
  T/C: 104 % of control
[1]
  T/C: 100 % of control
[6]
  T/C: 104 % of control
[2]
  T/C: 100 % of control
dose: 400.0 mg/kg/injection, schedule: Q01DX009 (ip), vehicle: saline with Tween-80
  T/C: 95 % of control
[3]
  T/C: 90 % of control

## COc1ccc(OC(=O)CCCl)cc1
[1]
  T/C: 100 % of control
[2]
  T/C: 100 % of control
[3]
  T/C: 113 % of control

## CC(C)SC=O
dose: 25.0 mg/kg/injection, schedule: Q01DX009 (ip), vehicle: saline
  T/C: 100 % of control
dose: 50.0 mg/kg/injection, schedule: Q01DX009 (ip), vehicle: saline
  T/C: 101 % of control
dose: 50.0 mg/kg/injection, schedule: Q04DX003 (ip), vehicle: saline
  T/C: 101 % of control
dose: 100.0 mg/kg/injection, schedule: Q01DX009 (ip), vehicle: saline
  T/C: 92 % of control and 97 % of control
dose: 100.0 mg/kg/injection, schedule: Q04DX003 (ip), vehicle: saline
  T/C: 109 % of control
dose: 200.0 mg/kg/injection, schedule: Q01DX009 (ip), vehicle: saline
  T/C: 86 % of control
dose: 200.0 mg/kg/injection, schedule: Q04DX003 (ip), vehicle: saline
  T/C: 98 % of control
dose: 400.0 mg/kg/injection, schedule: Q01DX009 (ip), vehicle: saline
  T/C: 97 % of control and 118 % of control
dose: 400.0 mg/kg/injection, schedule: Q04DX003 (ip), vehicle: saline
  T/C: 103 % of control

## CCCCC#CC(=O)OC
dose: 25.0 mg/kg/injection, schedule: Q01DX009 (ip), vehicle: saline with Tween-80
  T/C: 116 % of control
[4]
  T/C: 104 % of control
[5]
  T/C: 100 % of control
[6]
  T/C: 114 % of control

## Cn1c([N+](=O)[O-])cnc1CSc1nc(-c2ccccc2)no1
[1]
  T/C: 93 % of control
[2]
  T/C: 117 % of control
[3]
  T/C: 93 % of control

## Cc1cn(C)c2nccnc12
dose: 12.5 mg/kg/injection, schedule: Q01DX009 (ip), vehicle: water
  T/C: 100 % of control
dose: 12.5 mg/kg/injection, schedule: Q04DX003 (ip), vehicle: water
  T/C: 102 % of control
dose: 25.0 mg/kg/injection, schedule: Q01DX009 (ip), vehicle: water
  T/C: 107 % of control
dose: 25.0 mg/kg/injection, schedule: Q04DX003 (ip), vehicle: water
  T/C: 96 % of control
dose: 50.0 mg/kg/injection, schedule: Q01DX009 (ip), vehicle: water
  T/C: 98 % of control
dose: 50.0 mg/kg/injection, schedule: Q04DX003 (ip), vehicle: water
  T/C: 112 % of control
dose: 100.0 mg/kg/injection, schedule: Q01DX009 (ip), vehicle: water
  T/C: 100 % of control
dose: 100.0 mg/kg/injection, schedule: Q04DX003 (ip), vehicle: water
  T/C: 117 % of control
dose: 200.0 mg/kg/injection, schedule: Q01DX009 (ip), vehicle: water
  T/C: 104 % of control
dose: 200.0 mg/kg/injection, schedule: Q04DX003 (ip), vehicle: water
  T/C: 98 % of control
dose: 300.0 mg/kg/injection, schedule: Q04DX003 (ip), vehicle: water
  T/C: 94 % of control

## ClCCOCCCl
[4]
  T/C: 115 % of control
[5]
  T/C: 124 % of control

Reference: PubChem BioAssay AID328 (DTP/NCI, 2004)
